In brackets after ≈: the same amount, converted by molar mass. Read-outs that look alike come from different tables or passages of the source.
Tests used:
MCF-7 cells = experiment: MTT antiproliferative activity assay, MCF-7; format: cell-based, human; settings: for IC50: Homo sapiens, read-out: IC50 MCF-7
Protocol: (§1) Hep-2 (larynx carcinoma, ATCC: CCL-23), MCF-7 (breast epithelial adenocarcinoma, ATCC: HTB-22), and Vero (African green monkey kidney, ATCC: CCL-81) cell lines were kindly provided by Dr. Mona Hassuneh (Department of Biological Sciences, University of Jordan). Cells were grown in Minimum Essential Medium Eagle (Gibco, Paisley UK) supplemented with 10% heat inactivated fetal bovine serum (Gibco, Paisley UK), 29 μg/mL L-glutamine, and 40 μg/mL gentamicin. Cells were incubated in a humidified atmosphere of 5% CO2 at 37 °C.
(§2) The antiproliferative activity of Inula viscosa compounds was measured using the MTT (3-(4,5-dimethylthiazol-2-yl)-2,5-diphenyltetrazolium bromide) assay (Promega, Madison, WI, USA). The assay detects the reduction of MTT by mitochondrial dehydrogenase to blue formazan product, which reflects the normal function of mitochondria and cell viability. Exponentially growing cells were washed and seeded at 17,000 cells/well for Hep-2 cell line and 11,000 cells/ well for MCF-7 cell line (in 200 μL of growth medium) in 96 well microplates (Nunc, Roskilde, Denmark). After 24 h incubation, a partial monolayer was formed then the media was removed and 200 μL of the medium containing the compound (initially dissolved in DMSO) were added and re-incubated for 48 h. Then 100 μL of the medium were aspirated and 15 μL of the MTT solution were added to the remaining medium (100 μL) in each well. After 4 h contact with the MTT solution, blue crystals were formed. One hundred μL of the stop solution were added and incubated further for 1 h.
(§3) Reduced MTT was assayed at 550 nm using a microplate reader (Biotek, Winooski, VT, USA). Control groups received the same amount of DMSO (0.1%).Untreated cells were used as a negative control while, cells treated with vincristine sulfate were used as a positive control. Eight concentrations (150, 100, 50, 20, 10, 5, 2, and 1 μg/mL) were prepared from each compound and tested against the three cell lines. IC50 values were calculated as the concentrations that show 50% inhibition of proliferation on any tested cell line. Stock solutions of the compounds were dissolved in (DMSO) then diluted with the medium and sterilized using 0.2 μm membrane filters. The toxicity of DMSO was determined and the final dilution of compounds used for treating the cells contained not more than 0.1% (non toxic concentration) DMSO. IC50 values were reported as the average of three replicates. The antiproliferative effect of the tested compounds was determined by comparing the optical density of the treated cells against the optical density of the control (cells treated with media containing 0.1% DMSO).

Hep-2 cells = experiment: MTT antiproliferative activity assay, Hep-2; format: cell-based; settings: for IC50: Homo sapiens, read-out: IC50 Hep-2
Protocol: as §1, §2, §3

Vero cells = experiment: MTT antiproliferative activity assay, Vero; format: cell-based, African green monkey; settings: for IC50: Chlorocebus sabaeus, Vero, read-out: IC50 Vero
Protocol: as §1, §2, §3

[1] = tested on: Methicillin resistant Staphylococcus aureus (MRSA); experiment: Microtiter plate dilution MIC, MRSA; format: cell-based; settings: 24 h; for MIC: Staphylococcus aureus, MRSA, read-out: Minimum inhibitory concentration (MIC) MRSA
Protocol: (§4) The microbial strains used in this study were Escherichia coli (ATCC 10798), Salmonella typhimurium (ATCC14028), Methicillin resistant Staphylococcus aureus (MRSA, Clinical isolate), Bacillus cereus (Toxigenic strain TS), and Candida albicans (ATCC 90028). Bacterial strains were stocked onto nutrient agar slant at 4 °C, and Candida albicans was stocked onto malt agar slant at 4 °C.
(§5) The microtiter plate dilution method was used to determine the MIC (minimum inhibitory concentration) of compounds under study. Sterile 96-well microplates (Nunc) were used for the assay. Stock compounds were dissolved in DMSO so that the final concentrations in micro wells were less than 1% DMSO and solvent controls were run at these concentrations. Positive controls of penicillin G and tetracycline (Oxoid, Hampshire, UK) were prepared at the following concentrations 2, 4, 8, 16, 31, 62.5, 125, and 250 μg/mL. 1% DMSO was used as a solvent control. Compounds were diluted to twice the desired initial test concentration (250 µg/mL) with Muller Hinton broth (MHB) (Oxoid). All wells, except the first were filled with MHB (50 μL). Compounds (100 μL) were added to the first well and serial two-fold dilutions were made down to the desired minimum concentration (2 μg/mL). An over-night culture of bacteria suspended in MHB was adjusted to turbidity equal to 0.5 McFarland standard. The plates were inoculated with bacterial suspension (50 μL/well) and incubated at 37 °C for 24 h. Then the turbidity was measured using micro-plate reader (Biotek) at 620 nm wavelength. The same procedure was used to determine the antifungal activity of compounds against Candida albicans. The medium used was malt extract broth. The yeast cells were suspended in 0.85% saline, with an optical density equivalent to 0.5 McFarland standard, and diluted 1:100 in malt extract broth to obtain the working concentration. After 24 h incubation with each compound, the turbidity was measured at 530 nm wavelength using a spectrophotometer (Biotek). Percentage inhibition for tested microorganisms was calculated using the following formula:
(§6) MIC was determined as the lowest concentration of the compound that causes complete inhibition (100%) of each microorganism.

Escherichia coli = experiment: Microtiter plate dilution MIC, E. coli; format: cell-based; settings: for MIC: Escherichia coli, read-out: Minimum inhibitory concentration (MIC) E.c
Protocol: as §4, §5, §6

Salmonella typhimurium = experiment: Microtiter plate dilution MIC, S. typhimurium; format: cell-based; settings: for MIC: Salmonella enterica, ATCC 14028 / TYPHIMURIUM, read-out: Minimum inhibitory concentration (MIC) S.t
Protocol: as §4, §5, §6

Bacillus cereus = experiment: Microtiter plate dilution MIC, B. cereus; format: cell-based; settings: 24 h; for MIC: Bacillus cereus, read-out: Minimum inhibitory concentration (MIC) B.c
Protocol: as §4, §5, §6

Candida albicans = experiment: Microtiter plate dilution MIC, C. albicans; format: cell-based; settings: for MIC: Candida albicans, read-out: Minimum inhibitory concentration (MIC) C.a
Protocol: as §4, §5, §6

[2] = MTT, 48 h treatment, average of three replicates
[3] = clinical isolate, 100% inhibition
[4] = ATCC 10798, 24 h, 100% inhibition
[5] = ATCC14028, 24 h, 100% inhibition
[6] = Toxigenic strain TS, 100% inhibition
[7] = ATCC 90028, malt extract broth, 24 h, 100% inhibition
[8] = MCF7, MTT, 48 h treatment, average of three replicates
[9] = HEp-2, MTT, 48 h treatment, average of three replicates
[10] = ATCC10798, ATCC 10798, 24 h, 100% inhibition
[11] = ATCC90028, ATCC 90028, malt extract broth, 24 h, 100% inhibition

Row | Compound | IC50 MCF-7 (MCF-7 cells; [2]) [mg/L] | IC50 Hep-2 (Hep-2 cells; [2]) [mg/L] | IC50 Vero (Vero cells; [2]) [mg/L] | Minimum inhibitory concentration (MIC) MRSA [1, 3] [mg/L] | Minimum inhibitory concentration (MIC) E.c (Escherichia coli; [4]) [mg/L] | Minimum inhibitory concentration (MIC) S.t (Salmonella typhimurium; [5]) [mg/L] | Minimum inhibitory concentration (MIC) B.c (Bacillus cereus; [6]) [mg/L] | Minimum inhibitory concentration (MIC) C.a (Candida albicans; [7]) [mg/L] | other results
1 | 2-Desacetoxyxanthinin | >150 | >150 | >150 | >250 | >250 | >250 | >250 | >250 | –
2 | C=C(C(=O)O)[C@@H]1CC[C@@]2(C)C[C@@H](O)C[C@@](C)(O)[C@@H]2C1 [2α-Hydroxyilicic acid] | >150 | >150 | >150 | >250 | >250 | >250 | >250 | >250 | –
3 | COc1cc(O)c2c(c1)O[C@H](c1ccc(O)c(O)c1)[C@@H](OC(C)=O)C2=O [3-O-Acetylpadmatin] | >150 | >150 | >150 | >250 | >250 | >250 | >250 | >250 | –
4 | C=C1C[C@@H]2OC(=O)[C@@H](C)[C@H]2C[C@@H]2[C@@H]1CC[C@@]2(C)O [11α,13-Dihydroinuviscolide] | >150 | >150 | >150 | >250 | >250 | >250 | >250 | >250 | –
5 | COc1c(O)cc2oc(-c3ccc(O)cc3)cc(=O)c2c1O [Hispidulin] | – | – | – | – | – | – | – | – | IC50 (MCF-7 cells; MCF7, 48 h): 10.3 ± 1.85 mg/L (≈ 34.5 µM); IC50 (Hep-2 cells; HEp-2, 48 h): 19.5 ± 1.06 mg/L (≈ 64.9 µM); IC50 (Vero cells; 48 h): 105 ± 2.35 mg/L (≈ 351 µM); MIC [1]: > 250 mg/L; MIC (Escherichia coli; ATCC10798, 24 h): > 250 mg/L; MIC (Salmonella typhimurium; 24 h): > 250 mg/L; MIC (Bacillus cereus): > 250 mg/L; MIC (Candida albicans; ATCC90028, 24 h): > 250 mg/L
6 | C=C(C(=O)O)[C@@H]1CC[C@@]2(C)CCC[C@@](C)(O)[C@@H]2C1 [Ilicic acid] | – | – | – | – | – | – | – | – | IC50 (MCF-7 cells; [8]): > 150 mg/L; IC50 (Hep-2 cells; [9]): > 150 mg/L; IC50 (Vero cells; [2]): > 150 mg/L; MIC [1, 3]: > 250 mg/L; MIC (Escherichia coli; [10]): > 250 mg/L; MIC (Salmonella typhimurium; [5]): > 250 mg/L; MIC (Bacillus cereus; [6]): > 250 mg/L; MIC (Candida albicans; [11]): > 250 mg/L
7 | C=C1C(=O)O[C@H]2CC(=C)[C@H]3CC[C@@](C)(O)[C@@H]3C[C@H]12 [Inuviscolide] | – | – | – | – | – | – | – | – | IC50 (MCF-7 cells; [8]): > 150 mg/L; IC50 (Hep-2 cells; [9]): 148.8 ± 1.25 mg/L (≈ 599 µM); IC50 (Vero cells; [2]): > 150 mg/L; MIC [1, 3]: > 250 mg/L; MIC (Escherichia coli; [10]): > 250 mg/L; MIC (Salmonella typhimurium; [5]): > 250 mg/L; MIC (Bacillus cereus; [6]): > 250 mg/L; MIC (Candida albicans; [11]): > 250 mg/L
8 | COc1c(O)cc2oc(-c3ccc(O)c(O)c3)cc(=O)c2c1O [Nepetin] | 5.87 ± 1.36 (≈ 18.6 µM) | 11.33 ± 0.98 (≈ 35.8 µM) | 103.54 ± 2.82 (≈ 327 µM) | 250 (≈ 790 µM) | >250 | >250 | >250 | >250 | –
9 | C[C@@H]1[C@H](O)[C@@H](C)/C=C/C=C/CC/C=C/C=C/C=C/C=C/C(O[C@H]2O[C@H](C)[C@@H](O)[C@H](N)[C@@H]2O)CC2O[C@](O)(CC(O)C(O)CCC(O)CC(O)CC(O)CC(=O)O[C@H]1C)CC(O)C2C(=O)O (stereo partly shown) [Nystatin, reference compound] | – | – | – | – | – | – | – | 25 (≈ 27 µM) | –
10 | CC1(C)S[C@@H]2[C@H](NC(=O)Cc3ccccc3)C(=O)N2[C@H]1C(=O)O [Penicillin G, reference compound] | – | – | – | – | – | – | – | – | MIC [1, 3]: > 250 mg/L; MIC (Escherichia coli; [10]): 125 mg/L (≈ 374 µM); MIC (Salmonella typhimurium; [5]): 125 mg/L (≈ 374 µM); MIC (Bacillus cereus; [6]): > 250 mg/L
11 | CN(C)[C@@H]1C(O)=C(C(N)=O)C(=O)[C@@]2(O)C(O)=C3C(=O)c4c(O)cccc4[C@@](C)(O)[C@H]3C[C@@H]12 [Tetracycline, reference compound] | – | – | – | – | – | – | – | – | MIC [1, 3]: 125 mg/L (≈ 281 µM); MIC (Escherichia coli; [10]): 150 mg/L (≈ 338 µM); MIC (Salmonella typhimurium; [5]): 4 mg/L (≈ 9 µM); MIC (Bacillus cereus; [6]): 2 mg/L (≈ 4.5 µM)
12 | C=C(C(=O)O)[C@@H]1CC[C@@]2(C)CC[C@@H](O)C(=C)C2C1 (stereo partly shown) [Viscic acid] | >150 | >150 | >150 | >250 | >250 | >250 | >250 | >250 | –
13 | CC[C@H](CC[C@@H](C)[C@H]1CC[C@H]2[C@@H]3CC=C4C[C@@H](O[C@@H]5O[C@H](CO)[C@@H](O)[C@H](O)[C@H]5O)CC[C@]4(C)[C@H]3CC[C@]12C)C(C)C [β-Sitosteryl glucoside] | >150 | >150 | >150 | >250 | >250 | >250 | >250 | >250 | –
14 | Xepetin | >150 | >150 | >150 | >250 | >250 | >250 | >250 | >250 | –

Reference: PMC6268972, “Antiproliferative, Antimicrobial and Apoptosis Inducing Effects of Compounds Isolated from Inula viscosa” (Molecules, 2012)
